These results are taken from patent US20230265103A1 (TME Therapeutics LLC, priority 2021, published 2023).

SMILES strings stand for the structures. Bounds are passed on as bounds.

Series [1] concerns Ebola virus (Mayinga strain) glycoprotein (rVSV-EBOV-GP). Nature of the series: microbe, parasite or virus in culture. In kind it is cell-based.
Another series has as its target T1, PIKFYVE (Homo sapiens, UniProt Q9Y2I7).
T1 construct: purchased Eurofins (KINOMEscan); host or cells: E. coli BL21-derived (T7 phage display) or HEK-293
In words: KINOMEscan Kinase Assay (Eurofins), PIKFYVE inhibitory activity. It is filed as binding. As to conditions: KINOMEscan.

Series [2] deals with influenza A strain California/07/09 (H1N1)pdm09. Nature of the series: Influenza A antiviral assay (inhibition of CPE, neutral red). It is filed as cell-based. The following applies: for EC50: Influenza A virus, H1N1.
Series [3] has as its system JJN3 (multiple myeloma) cells. In words: Anti-proliferative activity, JJN3 (CellTiter-Glo). The following applies: Homo sapiens, JJN-3, 144 h.
Series [4] relates to SARS-CoV-2 (strain USA-WA1/2020). In words: SARS-CoV-2 antiviral assay (inhibition of CPE, neutral red). It is filed as cell-based. The following applies: SARS-COV2; for EC50: Severe acute respiratory syndrome coronavirus 2, inhibition of CPE by 50%.
For series [5], the system named is HuT-78 (T cell lymphoma) cells. In words: Anti-proliferative activity, HuT-78 (CellTiter-Glo). As to conditions: Homo sapiens, HuT78, 144 h.
Series [6] can be described thus: in vitro. The following applies: African green monkey.
Series [7] deals with SARS-CoV-2 (Delta strain B.1.617). In words: SARS-CoV-2 Delta antiviral assay (inhibition of CPE, neutral red). In kind it is cell-based. As to conditions: SARS-COV2 (Delta).
Series [8] has as its system Marburg virus (Angola strain) glycoprotein (rVSV-MARV-GP). Nature of the series: organism not typed. In kind it is cell-based.
The nature of series [9]: in vitro. The following applies: dog.

T1 sequence (Q9Y2I7 whole entry): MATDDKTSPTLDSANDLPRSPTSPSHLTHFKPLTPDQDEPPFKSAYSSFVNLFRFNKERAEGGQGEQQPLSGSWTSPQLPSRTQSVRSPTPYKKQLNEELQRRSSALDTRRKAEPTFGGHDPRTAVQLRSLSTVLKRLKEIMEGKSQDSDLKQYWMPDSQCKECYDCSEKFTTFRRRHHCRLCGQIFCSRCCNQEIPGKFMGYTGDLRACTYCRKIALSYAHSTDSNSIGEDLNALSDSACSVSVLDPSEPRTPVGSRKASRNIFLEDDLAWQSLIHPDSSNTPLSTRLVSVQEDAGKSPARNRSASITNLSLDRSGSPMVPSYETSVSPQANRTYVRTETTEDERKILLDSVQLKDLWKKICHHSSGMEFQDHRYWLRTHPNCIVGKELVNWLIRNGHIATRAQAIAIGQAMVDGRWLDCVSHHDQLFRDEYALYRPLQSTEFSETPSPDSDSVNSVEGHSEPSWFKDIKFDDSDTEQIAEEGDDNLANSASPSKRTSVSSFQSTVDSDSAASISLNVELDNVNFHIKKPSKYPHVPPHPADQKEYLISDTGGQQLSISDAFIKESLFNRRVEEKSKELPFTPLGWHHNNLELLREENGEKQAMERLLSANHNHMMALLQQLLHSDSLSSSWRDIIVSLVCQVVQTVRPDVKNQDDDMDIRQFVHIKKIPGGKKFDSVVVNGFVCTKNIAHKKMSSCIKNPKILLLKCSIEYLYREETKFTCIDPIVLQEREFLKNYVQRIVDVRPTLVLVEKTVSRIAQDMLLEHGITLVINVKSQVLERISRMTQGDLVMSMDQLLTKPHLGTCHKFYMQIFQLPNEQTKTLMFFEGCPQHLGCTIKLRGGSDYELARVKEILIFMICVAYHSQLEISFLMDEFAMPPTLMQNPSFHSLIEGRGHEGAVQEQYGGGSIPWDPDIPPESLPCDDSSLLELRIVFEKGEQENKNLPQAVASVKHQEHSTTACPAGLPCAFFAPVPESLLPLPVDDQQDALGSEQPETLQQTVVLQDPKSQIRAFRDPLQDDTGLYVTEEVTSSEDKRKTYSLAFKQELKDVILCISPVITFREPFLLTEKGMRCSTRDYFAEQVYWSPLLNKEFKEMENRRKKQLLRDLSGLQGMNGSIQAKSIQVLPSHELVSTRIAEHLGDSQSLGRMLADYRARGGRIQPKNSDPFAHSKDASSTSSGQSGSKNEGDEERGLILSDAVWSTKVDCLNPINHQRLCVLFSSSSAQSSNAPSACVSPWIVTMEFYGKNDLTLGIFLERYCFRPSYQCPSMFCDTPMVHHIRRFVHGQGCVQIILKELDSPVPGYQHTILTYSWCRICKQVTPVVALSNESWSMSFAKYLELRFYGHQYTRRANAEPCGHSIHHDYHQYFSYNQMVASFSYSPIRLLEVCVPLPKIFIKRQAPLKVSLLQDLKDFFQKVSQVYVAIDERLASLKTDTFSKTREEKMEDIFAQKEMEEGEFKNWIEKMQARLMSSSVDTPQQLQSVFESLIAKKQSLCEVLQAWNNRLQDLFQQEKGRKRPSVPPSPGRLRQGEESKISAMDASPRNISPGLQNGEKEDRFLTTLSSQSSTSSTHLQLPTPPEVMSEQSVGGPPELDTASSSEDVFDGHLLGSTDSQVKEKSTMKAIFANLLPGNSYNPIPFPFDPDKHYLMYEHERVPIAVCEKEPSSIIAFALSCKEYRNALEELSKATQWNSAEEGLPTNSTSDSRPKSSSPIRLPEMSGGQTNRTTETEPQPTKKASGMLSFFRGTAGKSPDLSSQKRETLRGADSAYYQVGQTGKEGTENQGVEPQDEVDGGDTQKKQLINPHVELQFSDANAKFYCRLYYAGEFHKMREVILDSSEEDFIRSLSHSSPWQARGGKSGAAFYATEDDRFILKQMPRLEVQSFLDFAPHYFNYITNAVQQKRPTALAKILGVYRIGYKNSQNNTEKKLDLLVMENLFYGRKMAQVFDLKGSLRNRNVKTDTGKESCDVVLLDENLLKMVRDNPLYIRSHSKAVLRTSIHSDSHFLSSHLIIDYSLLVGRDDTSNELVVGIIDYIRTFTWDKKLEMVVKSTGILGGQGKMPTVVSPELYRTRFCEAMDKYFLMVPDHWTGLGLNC

On to `Cc1cccc(-c2ccn(-c3nc(N4CCOCC4)c4sc(CN5CCN(S(C)(=O)=O)CC5)cc4n3)n2)c1` [Ex. 2, 4-(6-((4-(methylsulfonyl)piperazin-1-yl)methyl)-2-(3-(m-tolyl)-1H-pyrazol-1-yl)thieno[3,2-d]pyrimidin-4-yl)morpholine], for which the “Selectivity Index” value in series [1] is given as over 6000; in [2] (Influenza A, CC50 divided by EC50), over 150; in series [4] (CC50 divided by EC50), over 150; in series [7] (CC50 divided by EC50), over 1000; in [8], over 15000. For the same compound, the EC50 in [1] (Zaire ebolavirus, Vero) is under 0.5 µM; in series [2] it was under 1 µM; in series [3], under 0.05 µM; in series [4], under 1 µM; in [5], under 0.25 µM; in series [7] (Severe acute respiratory syndrome coronavirus 2), under 3 µM. The compound also came in with an EC50 in series [8] (Vero) of under 0.2 µM. The IC50 at PIKFYVE was under 0.001 µM. Further, the CC50 in the series “in vitro [6]” is over 3000 µM.
With `NC(=O)c1ncn([C@@H]2O[C@H](CO)[C@@H](O)[C@H]2O)n1` [ribavirin, reference compound], a half-maximal response in series [2] (EC50) required 3.8 µM. Also, the CC50 in “in vitro [9]” is over 1000 µM.
For the compound `Cc1cccc(-c2ccn(-c3cc(N4CCOCC4)c4sc(CN5CCN(S(C)(=O)=O)CC5)cc4n3)n2)c1` [Ex. 68, 4-(2-((4-(methylsulfonyl)piperazin-1-yl)methyl)-5-(3-(m-tolyl)-1H-pyrazol-1-yl)thieno[3,2-b]pyridin-7-yl)morpholine], on PIKFYVE, the IC50 was under 0.001 µM.
The compound `Cc1cccc(-c2ccn(-c3cc(N4CCOCC4)c4nc(CN5CCOCC5)[nH]c4n3)n2)c1` [Ex. 38, 4-((7-morpholino-5-(3-(m-tolyl)-1H-pyrazol-1-yl)-3H-imidazo[4,5-b]pyridin-2-yl)methyl)morpholine] displayed an IC50 against PIKFYVE of under 0.001 µM.
In turn, `CCC(CC)COC(=O)[C@H](C)N[P@](=O)(OC[C@H]1O[C@@](C#N)(c2ccc3c(N)ncnn23)[C@H](O)[C@@H]1O)Oc1ccccc1` [remdesivir, reference compound] showed a concentration for a half-maximal effect (EC50) in [4] of 5.6 µM. Besides, the CC50 in the series “in vitro [9]” was over 100 µM.
As to `Cc1cccc(-c2ccn(-c3nc(N4CCOCC4)c4nc(CN5CCC(N(C)S(C)(=O)=O)CC5)[nH]c4n3)n2)c1` [Ex. 11, N-methyl-N-(1-((6-morpholino-2-(3-(m-tolyl)-1H-pyrazol-1-yl)-9H-purin-8-yl)methyl)piperidin-4-yl)methanesulfonamide], the IC50 against PIKFYVE lay in the range of 0.001 to 0.01 µM.
At PIKFYVE, `Cc1cccc(-c2ccn(-c3nc(N4CCOCC4)c4nc(-c5cnn(C)c5)sc4n3)n2)c1` [Ex. 49, 4-(2-(1-methyl-1H-pyrazol-4-yl)-5-(3-(m-tolyl)-1H-pyrazol-1-yl)thiazolo[5,4-d]pyrimidin-7-yl)morpholine] came in with an IC50 of under 0.001 µM.
Turning to `Cc1cccc(-c2ccn(-c3nc(N4CCOCC4)c4nc(CN5CCC(N6CCC6)C(F)C5)sc4n3)n2)c1` (centres unmarked) [Ex. 47, 4-(2-((4-(azetidin-1-yl)-3-fluoropiperidin-1-yl)methyl)-5-(3-(m-tolyl)-1H-pyrazol-1-yl)thiazolo[5,4-d]pyrimidin-7-yl)morpholine], the IC50 at PIKFYVE was under 0.001 µM.
